# Results taken from ChEMBL document CHEMBL3352787, “Lipid-lowering effects of farnesylquinone and related analogues from the marine-derived Streptomyces nitrosporeus” (Bioorg Med Chem Lett, 2014).
# Active and inactive are the calls of the source. The rule behind the calls is not given here.
# How the values were obtained:
# HepG2 [1] = test: Lipid-lowering effect in human HepG2 cells assessed as reduction in oleic acid-induced lipid accumulation at 1 uM after 6 hrs by oil-red O staining based spectrophotometry; format: functional, cell-based
# HepG2 [2] = test: Lipid-lowering effect in human HepG2 cells assessed as reduction in oleic acid-induced triglyceride accumulation at 10 uM after 24 hrs by oil-red O staining based spectrophotometry; format: functional, cell-based
# HepG2 [3] = test: Lipid-lowering effect in human HepG2 cells assessed as reduction in oleic acid-induced total cholesterol accumulation at 10 uM after 24 hrs by oil-red O staining based spectrophotometry; format: functional, cell-based
# [4] = target: T1, Peroxisome proliferator-activated receptor alpha (Homo sapiens) (UniProt Q07869); test: Activation of PPARalpha transactivation in human HepG2 cells assessed as increase in transcriptional activity at 0.1 to 10 uM by luciferase reporter gene assay; format: cell-based
# T1 sequence (whole entry): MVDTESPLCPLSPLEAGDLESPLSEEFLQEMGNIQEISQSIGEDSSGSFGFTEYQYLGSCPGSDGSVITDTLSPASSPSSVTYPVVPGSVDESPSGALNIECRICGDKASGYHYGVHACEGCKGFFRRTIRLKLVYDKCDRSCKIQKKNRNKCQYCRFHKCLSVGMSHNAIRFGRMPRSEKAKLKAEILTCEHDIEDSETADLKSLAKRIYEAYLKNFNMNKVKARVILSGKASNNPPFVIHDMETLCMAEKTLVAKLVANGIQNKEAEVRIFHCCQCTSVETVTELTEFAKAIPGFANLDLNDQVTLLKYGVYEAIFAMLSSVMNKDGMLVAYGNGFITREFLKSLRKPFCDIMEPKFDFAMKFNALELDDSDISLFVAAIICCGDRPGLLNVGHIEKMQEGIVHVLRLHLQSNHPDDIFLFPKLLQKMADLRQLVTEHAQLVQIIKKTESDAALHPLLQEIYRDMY
# HepG2 [5] = test: Increase in ACOX1 gene expression in human HepG2 cells at 1 uM by quantitative real time PCR method; format: functional, cell-based
# HepG2 [6] = test: Lipid-lowering effect in human HepG2 cells assessed as reduction in oleic acid-induced triglyceride accumulation at 1 and 10 uM after 24 hrs by oil-red O staining based spectrophotometry; format: functional, cell-based
# HepG2 [7] = test: Effect on FAS protein expression in human HepG2 cells at 1 to 10 uM by Western blotting method; format: functional, cell-based
# HepG2 [8] = test: Increase in CYP7A1 gene expression in human HepG2 cells at 1 uM by quantitative real time PCR method; format: functional, cell-based
# HepG2 [9] = test: Inhibition of FAS gene expression in human HepG2 cells at 1 uM by quantitative real time PCR method; format: functional, cell-based
# HepG2 [10] = test: Inhibition of ACC gene expression in human HepG2 cells at 1 uM by quantitative real time PCR method; format: functional, cell-based
# HepG2 [11] = test: Increase in PDK4 gene expression in human HepG2 cells at 1 uM by quantitative real time PCR method; format: functional, cell-based
# HepG2 [12] = test: Lipid-lowering effect in human HepG2 cells assessed as reduction in oleic acid-induced total cholesterol accumulation at 1 and 10 uM after 24 hrs by oil-red O staining based spectrophotometry; format: functional, cell-based
# HepG2 [13] = test: Increase in PPARalpha protein expression in human HepG2 cells at 1 to 10 uM by Western blotting method; format: functional, cell-based
# HepG2 [14] = test: Increase in PGC-1alpha protein expression in human HepG2 cells at 1 to 10 uM by Western blotting method; format: functional, cell-based
# HepG2 [15] = test: Lipid-lowering effect in human HepG2 cells assessed as reduction in oleic acid-induced total cholesterol accumulation at 10 uM in presence of 10 uM PPARalpha antagonist MK886 by oil-red O staining based spectrophotometry; format: functional, cell-based
# HepG2 [16] = test: Increase in MCD1 gene expression in human HepG2 cells at 1 uM by quantitative real time PCR method; format: functional, cell-based
# HepG2 [17] = test: Lipid-lowering effect in human HepG2 cells assessed as reduction in oleic acid-induced neutral lipid accumulation at 1 and 10 uM after 24 hrs by oil-red O staining based spectrophotometry; format: functional, cell-based
# HepG2 [18] = test: Inhibition of HMGCR gene expression in human HepG2 cells at 1 uM by quantitative real time PCR method; format: functional, cell-based
# HepG2 [19] = test: Lipid-lowering effect in human HepG2 cells assessed as reduction in oleic acid-induced triglyceride accumulation at 10 uM in presence of 10 uM PPARalpha antagonist MK886 by oil-red O staining based spectrophotometry; format: functional, cell-based
# HepG2 [20] = test: Increase in CPT1 protein expression in human HepG2 cells at 1 to 10 uM by Western blotting method; format: functional, cell-based
# HepG2 [21] = test: Increase in PPARalpha gene expression in human HepG2 cells at 1 uM by quantitative real time PCR method; format: functional, cell-based
# HepG2 [22] = test: Increase in CPT1 gene expression in human HepG2 cells at 1 uM by quantitative real time PCR method; format: functional, cell-based
smiles,measurement,setting,value
O=C(O)C[C@H](O)CCc1ccccc1CO,inhibition,HepG2 [1],inactive
O=C(O)CCCCC[C@H](O)c1ccccc1CO,inhibition,HepG2 [1],Active
CC(C)=CCC/C(C)=C/CC/C(C)=C/C[C@@]12O[C@@H]1[C@H](O)C(C)=CC2=O,inhibition,HepG2 [1],inactive
CC[C@H](C)C(=O)O[C@H]1C[C@@H](C)C=C2C=C[C@H](C)[C@H](CC[C@@H]3C[C@@H](O)CC(=O)O3)[C@H]21,inhibition,HepG2 [1],Active
same,inhibition,HepG2 [2],Active
same,inhibition,HepG2 [3],Active
COC(=O)CC/C=C/c1ccccc1CO,inhibition,HepG2 [1],inactive
O=C(O)CC/C=C/c1ccccc1CO,inhibition,HepG2 [1],inactive
O=C(O)CCCC(=O)c1ccccc1CO,inhibition,HepG2 [1],inactive
CC(C)=CCC/C(C)=C/CC/C(C)=C/CC1=CC(=O)C(C)=CC1=O,Activity,[4],Dose-dependent effect
same,Activity,HepG2 [5],Active
same,inhibition,HepG2 [6],Dose-dependent effect
same,Activity,HepG2 [7],inactive
same,Activity,HepG2 [8],Active
same,inhibition,HepG2 [9],inactive
same,inhibition,HepG2 [10],inactive
same,Activity,HepG2 [11],Active
same,inhibition,HepG2 [1],Active
same,inhibition,HepG2 [12],Dose-dependent effect
same,Activity,HepG2 [13],Active
same,Activity,HepG2 [14],Active
same,inhibition,HepG2 [15],inactive
same,Activity,HepG2 [16],Active
same,inhibition,HepG2 [17],Dose-dependent effect
same,inhibition,HepG2 [18],inactive
same,inhibition,HepG2 [19],inactive
same,Activity,HepG2 [20],Active
same,Activity,HepG2 [21],Active
same,Activity,HepG2 [22],Active
O=C(O)CCCCc1ccccc1CO,inhibition,HepG2 [1],inactive
O=C(O)/C=C/C=C/c1ccccc1CO,inhibition,HepG2 [1],inactive
CC(C)=CCC/C(C)=C/CC/C(C)=C/Cc1cc(O)c(C)cc1O,inhibition,HepG2 [1],inactive
